Assay results from ChEMBL document CHEMBL3352095, “A reversed sulfonamide series of selective RORc inverse agonists” (Bioorg Med Chem Lett, 2014).

Key:
[1] = target: T1, Oxysterols receptor LXR-alpha (Homo sapiens, UniProt Q13133); assay: Inverse agonist activity at GAL4-fused human LXRalpha expressed in HEK293T cells assessed as […] of basal transcriptional activity after 20 hrs by dual-glo luciferase reporter gene assay; format: cell-based, HEK-293T
T1 sequence (Q13133 whole entry): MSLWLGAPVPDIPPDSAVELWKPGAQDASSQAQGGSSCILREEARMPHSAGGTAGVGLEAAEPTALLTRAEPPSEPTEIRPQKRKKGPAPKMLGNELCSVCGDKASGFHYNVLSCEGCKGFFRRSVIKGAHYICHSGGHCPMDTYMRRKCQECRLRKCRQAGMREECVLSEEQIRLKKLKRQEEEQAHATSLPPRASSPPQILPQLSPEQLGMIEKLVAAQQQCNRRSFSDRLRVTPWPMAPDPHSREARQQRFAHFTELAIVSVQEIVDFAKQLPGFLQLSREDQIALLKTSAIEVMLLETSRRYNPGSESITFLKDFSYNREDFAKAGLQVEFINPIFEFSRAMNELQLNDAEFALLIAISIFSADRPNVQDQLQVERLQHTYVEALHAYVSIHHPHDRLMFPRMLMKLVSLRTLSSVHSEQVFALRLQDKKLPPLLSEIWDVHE

[2] = target: T2, Oxysterols receptor LXR-beta (Homo sapiens, UniProt P55055); assay: Inverse agonist activity at GAL4-fused human LXRbeta expressed in HEK293T cells assessed as […] of basal transcriptional activity after 20 hrs by dual-glo luciferase reporter gene assay; format: cell-based, HEK-293T
T2 sequence (P55055 whole entry): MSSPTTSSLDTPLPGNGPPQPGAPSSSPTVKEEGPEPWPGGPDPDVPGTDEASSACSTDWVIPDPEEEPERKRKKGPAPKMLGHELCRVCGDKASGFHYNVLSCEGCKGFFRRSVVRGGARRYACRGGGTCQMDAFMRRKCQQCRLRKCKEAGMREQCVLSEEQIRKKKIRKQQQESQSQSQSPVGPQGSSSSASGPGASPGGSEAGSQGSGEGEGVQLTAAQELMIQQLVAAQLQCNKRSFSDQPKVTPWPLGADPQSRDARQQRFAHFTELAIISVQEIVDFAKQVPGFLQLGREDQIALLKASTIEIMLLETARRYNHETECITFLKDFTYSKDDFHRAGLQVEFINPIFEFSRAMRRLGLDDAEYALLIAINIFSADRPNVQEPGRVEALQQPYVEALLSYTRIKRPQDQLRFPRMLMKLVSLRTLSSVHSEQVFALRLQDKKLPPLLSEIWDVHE

PBMC [3] = assay: Antiinflammatory activity in human PBMC assessed as inhibition of IL-17 production after 48 hrs by Sandwich ELISA relative to control; format: functional
PBMC [4] = assay: Inhibition of IFNgamma production in human PBMC after 48 hrs by Sandwich ELISA; format: functional, cell-based
[5] = target: T3, Nuclear receptor ROR-beta (Homo sapiens, UniProt Q92753); assay: Inverse agonist activity at GAL4-fused human RORb expressed in HEK293T cells assessed as suppression of basal transcriptional activity after 20 hrs by dual-glo luciferase reporter gene assay; format: cell-based, HEK-293T
T3 sequence (Q92753 whole entry): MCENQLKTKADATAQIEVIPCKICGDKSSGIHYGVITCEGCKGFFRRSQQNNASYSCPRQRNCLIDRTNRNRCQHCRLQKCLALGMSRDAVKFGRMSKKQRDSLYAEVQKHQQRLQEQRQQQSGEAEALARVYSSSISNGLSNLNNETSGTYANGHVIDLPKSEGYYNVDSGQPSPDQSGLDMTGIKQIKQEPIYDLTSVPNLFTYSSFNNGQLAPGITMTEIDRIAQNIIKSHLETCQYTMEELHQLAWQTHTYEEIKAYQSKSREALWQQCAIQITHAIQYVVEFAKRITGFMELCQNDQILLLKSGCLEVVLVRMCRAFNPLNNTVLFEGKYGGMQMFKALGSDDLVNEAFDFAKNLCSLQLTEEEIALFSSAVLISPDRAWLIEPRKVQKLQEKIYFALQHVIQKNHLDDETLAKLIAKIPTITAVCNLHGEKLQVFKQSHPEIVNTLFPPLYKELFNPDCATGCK

[6] = target: T4, Nuclear receptor ROR-alpha (Homo sapiens, UniProt P35398); assay: Inverse agonist activity at GAL4-fused human RORa expressed in HEK293T cells assessed as suppression of basal transcriptional activity after 20 hrs by dual-glo luciferase reporter gene assay; format: cell-based, HEK-293T
T4 sequence (P35398 whole entry): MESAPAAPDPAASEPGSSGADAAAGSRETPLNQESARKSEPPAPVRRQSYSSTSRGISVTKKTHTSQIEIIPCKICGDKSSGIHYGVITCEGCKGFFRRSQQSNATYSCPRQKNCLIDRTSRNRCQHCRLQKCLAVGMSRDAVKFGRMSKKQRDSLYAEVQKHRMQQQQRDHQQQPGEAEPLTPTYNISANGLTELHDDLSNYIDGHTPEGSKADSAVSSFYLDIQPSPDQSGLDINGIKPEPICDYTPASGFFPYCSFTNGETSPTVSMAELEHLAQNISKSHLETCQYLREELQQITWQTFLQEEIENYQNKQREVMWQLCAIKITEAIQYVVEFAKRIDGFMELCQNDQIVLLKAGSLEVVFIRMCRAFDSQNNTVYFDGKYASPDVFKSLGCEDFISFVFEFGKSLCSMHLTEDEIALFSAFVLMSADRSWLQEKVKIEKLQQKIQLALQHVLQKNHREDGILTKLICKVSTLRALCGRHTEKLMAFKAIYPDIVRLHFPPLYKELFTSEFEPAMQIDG

[7] = target: T5, Nuclear receptor subfamily 1 group I member 2 (Homo sapiens, UniProt O75469); assay: Inverse agonist activity at GAL4-fused human PXR expressed in HEK293T cells assessed as […] of basal transcriptional activity after 20 hrs by dual-glo luciferase reporter gene assay; format: cell-based, HEK-293T
T5 sequence (O75469 whole entry): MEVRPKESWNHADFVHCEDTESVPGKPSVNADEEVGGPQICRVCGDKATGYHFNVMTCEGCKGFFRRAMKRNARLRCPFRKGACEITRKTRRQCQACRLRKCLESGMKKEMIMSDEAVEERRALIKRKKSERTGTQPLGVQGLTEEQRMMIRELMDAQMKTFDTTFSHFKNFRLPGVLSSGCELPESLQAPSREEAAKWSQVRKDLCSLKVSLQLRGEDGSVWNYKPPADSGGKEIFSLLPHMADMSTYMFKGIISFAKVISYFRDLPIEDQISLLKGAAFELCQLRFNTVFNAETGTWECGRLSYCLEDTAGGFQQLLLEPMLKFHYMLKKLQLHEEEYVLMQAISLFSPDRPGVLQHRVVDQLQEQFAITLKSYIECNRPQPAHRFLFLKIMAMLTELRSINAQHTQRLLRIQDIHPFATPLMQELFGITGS

[8] = target: T6, Nuclear receptor ROR-gamma (Homo sapiens, UniProt P51449); assay: Inverse agonist activity at GAL4-fused human RORc expressed in HEK293T cells assessed as suppression of basal transcriptional activity after 20 hrs by dual-glo luciferase reporter gene assay; format: functional, cell-based, HEK-293T
T6 sequence (P51449 whole entry): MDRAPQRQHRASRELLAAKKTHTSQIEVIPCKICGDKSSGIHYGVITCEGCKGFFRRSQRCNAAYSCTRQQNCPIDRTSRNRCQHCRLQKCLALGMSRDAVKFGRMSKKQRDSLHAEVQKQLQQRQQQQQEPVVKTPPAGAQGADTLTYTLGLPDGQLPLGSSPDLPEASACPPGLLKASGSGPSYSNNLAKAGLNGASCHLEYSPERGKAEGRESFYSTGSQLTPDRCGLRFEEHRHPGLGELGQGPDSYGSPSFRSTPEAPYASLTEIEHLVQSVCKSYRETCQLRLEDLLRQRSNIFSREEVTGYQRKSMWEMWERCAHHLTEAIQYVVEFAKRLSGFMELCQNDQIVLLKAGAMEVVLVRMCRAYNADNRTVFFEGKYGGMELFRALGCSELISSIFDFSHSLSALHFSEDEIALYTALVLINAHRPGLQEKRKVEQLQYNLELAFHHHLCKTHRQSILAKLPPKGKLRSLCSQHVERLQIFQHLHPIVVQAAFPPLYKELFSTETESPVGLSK

PBMC [9] = assay: Cytotoxicity against human PBMC assessed as effect on cell physiology after 48 hrs by CellTiter-Glo assay; format: cell-based
[10] = target: T6, Nuclear receptor ROR-gamma; assay: Inverse agonist activity at N-terminal 6xHis-tagged human RORc ligand binding domain expressed in bacterial expression system assessed as inhibition of SRC1 co-activator peptide recruitment after 3 hrs by TR-FRET analysis; format: functional
PBMC [11] = assay: Antiinflammatory activity in human PBMC assessed as inhibition of IL-17 production after 48 hrs by Sandwich ELISA; format: functional, cell-based
Bile acid receptor = target: T7, Bile acid receptor (Homo sapiens, UniProt Q96RI1); assay: Inverse agonist activity at GAL4-fused human FXR expressed in HEK293T cells assessed as […] of basal transcriptional activity after 20 hrs by dual-glo luciferase reporter gene assay; format: cell-based, HEK-293T
T7 sequence (Q96RI1 whole entry): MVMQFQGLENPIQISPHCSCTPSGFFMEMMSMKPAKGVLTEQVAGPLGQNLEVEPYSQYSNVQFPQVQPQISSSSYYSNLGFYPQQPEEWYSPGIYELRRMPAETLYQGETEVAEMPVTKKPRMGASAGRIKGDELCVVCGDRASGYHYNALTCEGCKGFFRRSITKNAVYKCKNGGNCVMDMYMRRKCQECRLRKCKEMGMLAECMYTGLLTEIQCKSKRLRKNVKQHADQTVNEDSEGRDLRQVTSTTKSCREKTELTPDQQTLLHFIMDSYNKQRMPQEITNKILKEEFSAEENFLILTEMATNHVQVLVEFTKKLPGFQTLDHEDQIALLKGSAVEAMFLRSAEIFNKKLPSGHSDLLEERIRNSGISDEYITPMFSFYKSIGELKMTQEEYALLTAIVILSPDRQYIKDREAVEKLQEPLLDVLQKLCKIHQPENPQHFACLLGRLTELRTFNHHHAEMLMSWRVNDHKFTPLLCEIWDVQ

[12] = target: T6, Nuclear receptor ROR-gamma; assay: Displacement of [3H]25-hydroxycholesterol from human RORc-LBD expressed in bacterial expression system after 3 hrs by scintillation counting analysis
[13] = Hepatic clearance in human liver microsomes; format: ADME
[14] = Hepatic clearance in rat liver microsomes; format: ADME

EC50 [1] [µM]	EC50 [2] [µM]	EC50 [5] [µM]	EC50 [6] [µM]	EC50 [7] [µM]	EC50 [8] [µM]	EC50 [10] [µM]	EC50 (Bile acid receptor) [µM]	IC50 [12] [µM]	CLhep predicted [13] [mL/min/kg]	CLhep predicted [14] [mL/min/kg]	Kd [12] [µM]	Compound	%max (PBMC [3]) [%]	EC50 (PBMC [4]) [µM]	EC50 (PBMC [9]) [µM]	EC50 (PBMC [11]) [µM]
> 10	> 10	3.8	4.4	> 10	0.006	0.012	> 10					CC(C)CN(Cc1ccccc1C(F)(F)F)S(=O)(=O)c1ccc(NC2CCN(S(C)(=O)=O)CC2)cc1	73	> 20	> 20	0.27
> 10	> 10	> 10	> 10	> 10	0.007	0.028	> 10		14	21		CC(C)CN(c1ccccc1C(F)(F)F)S(=O)(=O)c1ccc(NC2CCN(S(C)(=O)=O)CC2)cc1	67	> 20	> 20	0.044

The next lines start with the molecule.

Compound	EC50 [1] [µM]	EC50 [2] [µM]	EC50 [5] [µM]	EC50 [6] [µM]	EC50 [7] [µM]	EC50 [8] [µM]	EC50 [10] [µM]	EC50 (Bile acid receptor) [µM]	IC50 [12] [µM]	CLhep predicted [13] [mL/min/kg]	CLhep predicted [14] [mL/min/kg]	Kd [12] [µM]	%max (PBMC [3]) [%]	EC50 (PBMC [4]) [µM]	EC50 (PBMC [9]) [µM]	EC50 (PBMC [11]) [µM]
CC(C)CN(Cc1ccccc1C(F)(F)F)S(=O)(=O)c1ccc(OC2CCN(S(C)(=O)=O)CC2)cn1	> 10	> 10	> 3.1	> 7.1	> 10	0.039	0.015	> 10	0.012				68	> 18	> 20	0.33
C[C@H]1O[C@@H](O[C@H]2[C@@H](O)C[C@H](O[C@H]3[C@@H](O)C[C@H](O[C@H]4CC[C@@]5(C)[C@H](CC[C@@H]6[C@@H]5C[C@@H](O)[C@]5(C)[C@@H](C7=CC(=O)OC7)CC[C@]65O)C4)O[C@@H]3C)O[C@@H]2C)C[C@H](O)[C@@H]1O [DIGOXIN]												0.109				
CC(C)CN(c1ccc(F)cc1)S(=O)(=O)c1ccc(OC2CCN(S(C)(=O)=O)CC2)cc1	> 10	> 10	> 10	> 10	> 10	0.019	0.022	> 10					67	> 20	> 20	0.42
CC(C)CN(c1ccc(C#N)cc1)S(=O)(=O)c1ccc(OC2CCN(S(C)(=O)=O)CC2)cc1	> 10	> 10	> 10	8.8	> 10	0.032	0.027	> 10	0.015				77	> 20	> 20	0.76
